Experimental data: patent US20180140655A1, “AGENT CONTAINING IMIDAZOLE DIPEPTIDE” (THE UNIVERSITY OF TOKYO, priority 2014, published 2018)

Columns and labels:
[1] = Stability at ordinary temperature, under cooking conditions and in solution; type: physicochemical; settings: for stability under cooking conditions: cooking conditions of 180° C. or lower
Description: The agent, pharmaceutical composition, or nutritional composition of the present invention can be produced by using various known techniques. The step of adjusting concentration of the active ingredient to a predetermined concentration may be performed in various stages of the manufacturing process. Those skilled in the art can appropriately design the steps for producing the agent of the present invention in consideration of solubility, stability, volatility, etc. of the active ingredient. […] It was also confirmed that they can be stably stored over at least 2 years and 9 months in a state of solution.

[2] = cited from earlier work
[3] = tested on: GABA transporters; experiment: Microarray analysis of GABA transporter genes in Alzheimer disease model mice; type: in vivo, mouse; settings: carnosine administration group vs Alzheimer model
Experimental: (§1) High fat diet (HFD) was given to transgenic mice (Alzheimer disease model mice) to induce cerebral hypofunction. Carnosine (L-histidine-β-alanine) was administered to the mice, and influence of carnosine was evaluated.
(§2) Suppression of cerebral inflammation in the carnosine administration group was also shown by the results of MRI test (FIG. 8-2, red portions). The results of the microarray analysis indicated increase of expressions of GABA transporters such as 7Slc6a12 and slc6a13 observed in the Alzheimer model was suppressed in the carnosine administration group (FIG. 8-3).

[4] = tested on: transgenic mice (Alzheimer disease model mice); experiment: Blood insulin concentration in Alzheimer disease model mice; type: in vivo, mouse; settings: mice starved overnight; high fat diet-induced Alzheimer disease; p<0.05
Experimental: as §1
Blood was collected from mice starved overnight, and blood insulin concentration was determined with a kit (Morinaga).

[5] = tested on: transgenic mice (Alzheimer disease model mice); experiment: Blood cytokines in high fat diet Alzheimer disease model mice; type: in vivo, mouse; settings: carnosine-containing diet group
Experimental: as §1, §2

[6] = tested on: transgenic mice (Alzheimer disease model mice); experiment: Intracerebral inflammatory reaction by MRI in Alzheimer disease model mice; type: in vivo, mouse; settings: carnosine administration group, high fat diet transgenic mice
Experimental: as §1, §2

SMILES | stability under cooking conditions [1] | stability at an ordinary temperature [1] | water solubility (in words) [2] | increase of expression of GABA transporter 7Slc6a12 [3] | increase of expression of GABA transporter slc6a13 [3] | increase of the blood insulin concentration [4] | blood cytokines [5] | cerebral inflammation (MRI test) [6] | water solubility ([2]; at 25° C.) [g/3.1 ml]
Cn1cncc1C[C@H](NC(=O)CCN)C(=O)O [anserine, (2S)-2-[(3-amino-1-oxopropyl)amino]-3-(3-methyl-4-imidazolyl)ppropanoic acid] | sufficiently stable | sufficiently stable | water-soluble | – | – | – | – | – | –
NCCC(=O)N[C@@H](Cc1cnc[nH]1)C(=O)O [carnosine] | sufficiently stable | sufficiently stable | water-soluble | suppressed | suppressed | suppressed | decreased | Suppression | 1
